# Measured values: patent publication US20260022143A1, “Cyclic Peptide Inhibitors of IL-23” (JANSSEN PHARMACEUTICA NV, priority 2022, published 2026)
# Starred links: 1 amine or outer side, 2 acyl side, 3 side chain; linkers in the order of their positions; H or OH if unused. Positions of bridges follow the written chain, without caps; N, C: chain ends. Non-standard residues stand in square brackets, D forms with d. Residues, ends and D or L forms follow the SMILES beside them. *: point of attachment. X33 = C[N+](C)(C)CCCCc1cn(-c2ccc(C[C@H](N[*:1])C(=O)[*:2])cc2)nn1; Me3N+(CH2)2O(CH2)2O(CH2)2CO = C[N+](C)(C)CCOCCOCCC(=O)*; Trp(7-Me) = Cc1cccc2c(C[C@H](N)C(=O)O)c[nH]c12; 2Nal = N[C@@H](Cc1ccc2ccccc2c1)C(=O)O; 3Pal = N[C@@H](Cc1cccnc1)C(=O)O; X53 = C[N+]1(CCOCCOCC*)CCOCC1; Pen = CC(C)(S)[C@H](N)C(=O)O; Thp = NC1(C(=O)O)CCOCC1; X17 = C[N+]1(CC*)CCOCC1; X3 = C[N+](C)(C)CCCCC*; Sar = CNCC(=O)O
# Test: Exposed Polar Surface Area (EPSA)
# Format: physicochemical
# Details: SFC on Chirex 3014 column; sample 1 mM DMSO stock; read-out: EPSA
# In short: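 EPSA, in Å^2, is read from SFC retention time through a linear relationship established with eight calibration standards. Separation uses a Chirex 3014 stationary phase, 35 °C, 14 MPa back pressure, and a 5–60% methanol/ammonium formate modifier gradient in CO2.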
row,Compound,EPSA [A^2]
1,CC(=O)NCCCC[C@@H]1NC(=O)[C@H](Cc2c[nH]c3c(C)cccc23)NC(=O)[C@H]([C@@H](C)O)NC(=O)[C@H](CC(N)=O)NC(=O)[C@@H](NC(C)=O)C(C)(C)SSC(C)(C)[C@@H](C(=O)N[C@@H](Cc2ccc(-n3cc(CCCC[N+](C)(C)C)nn3)cc2)C(=O)N[C@@H](Cc2ccc3ccccc3c2)C(=O)NC2(C(=O)N[C@@H](CCCCNC(C)=O)C(=O)N[C@@H](CC(N)=O)C(=O)N[C@@H](Cc3cccnc3)C(=O)N(C)CC(N)=O)CCOCC2)NC1=O [compound 425] (Ac-[Pen]NT[Trp(7-Me)]K(Ac)[Pen][X33][2Nal][Thp]K(Ac)N[3Pal][Sar]-NH2; disulfide 1-6 (inferred)),161
2,CC(=O)NCCCC[C@@H]1NC(=O)[C@H](Cc2c[nH]c3ccccc23)NC(=O)[C@H]([C@@H](C)O)NC(=O)[C@H](CC(N)=O)NC(=O)[C@@H](NC(=O)[C@@H](CCCNC(=N)N)NC(C)=O)C(C)(C)SSC(C)(C)[C@@H](C(=O)N[C@@H](Cc2ccc(OCC[N+]3(C)CCOCC3)cc2)C(=O)N[C@@H](Cc2ccc3ccccc3c2)C(=O)NC2(C(=O)N[C@@H](CCC(=O)O)C(=O)N[C@@H](CC(N)=O)C(=O)N[C@@H](Cc3cccnc3)C(=O)N(C)CC(N)=O)CCOCC2)NC1=O [compound 429] (Ac-[dR][Pen]NTWK(Ac)[Pen]Y(X17)[2Nal][Thp]EN[3Pal][Sar]-NH2; disulfide 2-7),192
3,CC(=O)NCCCC[C@@H]1NC(=O)[C@H](Cc2c[nH]c3c(C)cccc23)NC(=O)[C@H]([C@@H](C)O)NC(=O)[C@H](CC(N)=O)NC(=O)[C@@H](NC(C)=O)C(C)(C)SSC(C)(C)[C@@H](C(=O)N[C@@H](Cc2ccc(OCC[N+]3(C)CCOCC3)cc2)C(=O)N[C@@H](Cc2ccc3ccccc3c2)C(=O)NC2(C(=O)N[C@@H](CCC(=O)O)C(=O)N[C@@H](CC(N)=O)C(=O)N[C@@H](Cc3cccnc3)C(=O)N(C)CC(N)=O)CCOCC2)NC1=O [compound 431] (Ac-[Pen]NT[Trp(7-Me)]K(Ac)[Pen]Y(X17)[2Nal][Thp]EN[3Pal][Sar]-NH2; disulfide 1-6 (inferred)),174

# More lines, now with the values ahead:
row,EPSA [A^2],Compound
1,168,"CC(=O)NCCCC[C@@H]1NC(=O)[C@H](Cc2c[nH]c3c(C)cccc23)NC(=O)[C@H]([C@@H](C)O)NC(=O)[C@H](CC(N)=O)NC(=O)[C@@H](NC(=O)CCOCCOCC[N+](C)(C)C)C(C)(C)SSC(C)(C)[C@@H](C(=O)N[C@@H](Cc2ccc(OCCCCC[N+](C)(C)C)cc2)C(=O)N[C@@H](Cc2ccc3ccccc3c2)C(=O)NC2(C(=O)N[C@@H](CCC(=O)O)C(=O)N[C@@H](CC(N)=O)C(=O)N[C@@H](Cc3cccnc3)C(=O)N(C)CC(N)=O)CCOCC2)NC1=O [compound 427, cPEG3aCO-Pen(3)-N-T-7MeW-K(Ac)-Pen(3)-TMAPF-2Nal-THP-E-N-3Pya-Sar-CONH2] ({Me3N+(CH2)2O(CH2)2O(CH2)2CO}-[Pen]NT[Trp(7-Me)]K(Ac)[Pen]Y(X3)[2Nal][Thp]EN[3Pal][Sar]-NH2; disulfide 1-6)"
2,167,CC(=O)NCCCC[C@@H]1NC(=O)[C@H](Cc2c[nH]c3c(C)cccc23)NC(=O)[C@H]([C@@H](C)O)NC(=O)[C@H](CC(N)=O)NC(=O)[C@@H](NC(C)=O)C(C)(C)SSC(C)(C)[C@@H](C(=O)N[C@@H](Cc2ccc(OCCOCCOCC[N+]3(C)CCOCC3)cc2)C(=O)N[C@@H](Cc2ccc3ccccc3c2)C(=O)NC2(C(=O)N[C@@H](CCC(=O)O)C(=O)N[C@@H](CC(N)=O)C(=O)N[C@@H](Cc3cccnc3)C(=O)N(C)CC(N)=O)CCOCC2)NC1=O [compound 432] (Ac-[Pen]NT[Trp(7-Me)]K(Ac)[Pen]Y(X53)[2Nal][Thp]EN[3Pal][Sar]-NH2; disulfide 1-6 (inferred))
